Measurements published in patent US20250099557A1, “ANTIBIOTIC PHARMACEUTICAL COMPOSITION CAPABLE OF SUBCUTANEOUS ADMINISTRATION” (SHANGHAI BAO PHARMACEUTICALS CO., LTD., priority 2021, published 2025).

Assays:
[1] = system: intestinal flora; experiment: Effects of administration routes on the diversity of intestinal flora in mice (16S rDNA sequencing, OTU); type: in vivo; conditions: C57BL/6 mice, feces
Description: 12 SPF grade C57BL/6 mice were used for each antibiotic mode, and divided into two groups, each having 6 mice. The two groups include an oral administration group, and a subcutaneous administration group combined with recombinant human HAase. A blank control group including 6 mice was also set. The mice in the oral administration group were given the model antibiotic solution by oral gavage for five consecutive days. The mice in the subcutaneous administration group combined with recombinant human HAase were given the same dose of model antibiotic as that in the oral administration group by subcutaneous administration for five consecutive days. The feces of mice in each group were collected on the 1 st, 2nd, 3rd, 4th, 5th, 6th, 8th, 10th and 14th days after five consecutive days of administration, and stored at −80° C., for detecting the microbial diversity later. The fecal samples of each group were amplified and sequenced by 16S rDNA sequencing. After DNA extraction, PCR amplification and gene sequencing, the changes of intestinal bacterial diversity in each group of mice were analyzed. The relative species diversity of the test group was calculated, with the OUT value of the blank control group in each day as a reference, as shown in Table 33.

[2] = biological target: T1, HAase (Homo sapiens, UniProt P38567); experiment: Compatibility study of HAase and antibiotic in solution: HAase activity; type: biochemical; conditions: 15 min room temperature; for Final concentration of HAase (units/ml) 150: HAase added to 150 units/ml; for Final concentration of HAase (units/ml) 500: HAase added to 500 units/ml; for Final concentration of HAase (units/ml) 2000: HAase added to 2000 units/ml; for Final concentration of HAase (units/ml) 6000: HAase added to 6000 units/ml; for interference with the activity of HAase: antibiotic and HAase in physiological saline
T1 construct: made in house
T1 sequence (P38567 36-482): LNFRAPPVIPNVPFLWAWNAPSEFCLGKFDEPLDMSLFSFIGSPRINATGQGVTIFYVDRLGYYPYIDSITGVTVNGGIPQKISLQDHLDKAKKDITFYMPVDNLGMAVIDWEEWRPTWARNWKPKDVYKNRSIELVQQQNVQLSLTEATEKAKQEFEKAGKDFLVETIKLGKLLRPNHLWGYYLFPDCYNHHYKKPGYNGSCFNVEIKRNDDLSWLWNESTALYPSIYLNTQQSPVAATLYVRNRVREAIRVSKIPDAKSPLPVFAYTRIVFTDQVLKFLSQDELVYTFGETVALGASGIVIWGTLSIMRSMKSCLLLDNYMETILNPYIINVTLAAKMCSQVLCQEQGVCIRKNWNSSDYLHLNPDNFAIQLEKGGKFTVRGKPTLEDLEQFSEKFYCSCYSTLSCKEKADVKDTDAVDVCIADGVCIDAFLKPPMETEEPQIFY
Protocol: “HAase activity refers to the ability of HAase to catalytically cleave hyaluronic acid. The Chinese Pharmacopoeia provides a method for determining the HAase activity, indirectly by measuring the amount of remaining higher-molecular-weight hyaluronic acid substrate after the enzyme is allowed to catalytically cleave hyaluronic acid at 37° C. for 30 min. A standard reference solution can be used in the assay to determine the relative activity (in units) of any HAase. In-vitro assays for the determination of HAase are known in the art. Exemplary assays include micro-turbidimetric assay described below, which indirectly measures the cleavage of hyaluronic acid by HAase by detecting an insoluble precipitate formed when uncleaved hyaluronic acid binds to serum albumin. The reference standard can be used, for example, to generate a standard curve, so as to determine the activity of the tested HAase in units.
(§1) The compatibility of HAase and an antibiotic was studied by preparing a solution comprising the two substances. A dry Meropenem power for injection was dissolved in physiological saline to give a concentration of 5 mg/ml and 50 mg/ml, and then HAase was added to give a final concentration of 150, 500, 2000, and 6000 units/ml respectively. After preparation, the solution was left to stand at room temperature for 15 min. The appearance of the solution was observed, and the concentration of HAase was determined.
as §1, with “dry Ceftriaxone sodium” for “dry Meropenem”, “of 50” for “of 5”, “and 250” for “and 50”
as §1, with “dry Azithromycin” for “dry Meropenem”, “of 10” for “of 5”, “and 100” for “and 50”
as §1, with “dry Cefradine powder” for “dry Meropenem power”, “of 50” for “of 5”, “and 250” for “and 50”
as §1, with “dry Teicoplanin powder” for “dry Meropenem power”, “of 10” for “of 5”, “and 70” for “and 50”
as §1, with “dry Ceftazidime powder” for “dry Meropenem power”, “of 20” for “of 5”, “and 200” for “and 50”, “min.” for “min. The appearance of the solution was observed, and the concentration of HAase was determined.”

[3] = in combination with recombinant human HAase for subcutaneous administration, five consecutive days, D1 after administration
[4] = in combination with recombinant human HAase for subcutaneous administration, five consecutive days, D2
[5] = in combination with recombinant human HAase for subcutaneous administration, five consecutive days, D3
[6] = in combination with recombinant human HAase for subcutaneous administration, five consecutive days, D4
[7] = in combination with recombinant human HAase for subcutaneous administration, five consecutive days, D5
[8] = in combination with recombinant human HAase for subcutaneous administration, five consecutive days, D6
[9] = in combination with recombinant human HAase for subcutaneous administration, five consecutive days, D8
[10] = in combination with recombinant human HAase for subcutaneous administration, five consecutive days, D10
[11] = in combination with recombinant human HAase for subcutaneous administration, five consecutive days, D14
[12] = oral administration for five consecutive days, D1 after administration
[13] = oral administration for five consecutive days, D2
[14] = oral administration for five consecutive days, D3
[15] = oral administration for five consecutive days, D4
[16] = oral administration for five consecutive days, D5
[17] = oral administration for five consecutive days, D6
[18] = oral administration for five consecutive days, D8
[19] = oral administration for five consecutive days, D10
[20] = oral administration for five consecutive days, D14
[21] = antibiotic 20 mg/ml in physiological saline
[22] = antibiotic 200 mg/ml in physiological saline
[23] = antibiotic 50 mg/ml in physiological saline
[24] = antibiotic 250 mg/ml in physiological saline

Relative abundance of OUT (operational taxonomic units) [1, 3] [%]	Relative abundance of OUT (operational taxonomic units) [1, 4] [%]	Relative abundance of OUT (operational taxonomic units) [1, 5] [%]	Relative abundance of OUT (operational taxonomic units) [1, 6] [%]	Relative abundance of OUT (operational taxonomic units) [1, 7] [%]	Relative abundance of OUT (operational taxonomic units) [1, 8] [%]	Relative abundance of OUT (operational taxonomic units) [1, 9] [%]	Relative abundance of OUT (operational taxonomic units) [1, 10] [%]	Relative abundance of OUT (operational taxonomic units) [1, 11] [%]	Relative abundance of OUT (operational taxonomic units) [1, 12] [%]	Relative abundance of OUT (operational taxonomic units) [1, 13] [%]	Relative abundance of OUT (operational taxonomic units) [1, 14] [%]	Relative abundance of OUT (operational taxonomic units) [1, 15] [%]	Relative abundance of OUT (operational taxonomic units) [1, 16] [%]	Relative abundance of OUT (operational taxonomic units) [1, 17] [%]	Relative abundance of OUT (operational taxonomic units) [1, 18] [%]	Relative abundance of OUT (operational taxonomic units) [1, 19] [%]	Relative abundance of OUT (operational taxonomic units) [1, 20] [%]	SMILES	interference with the activity of HAase [2]	also measured
35.5	34.0	34.3	33.7	34.3	35.1	41.6	42.3	51.3	22.8	20.9	20.4	21.1	19.2	22.3	26.8	29.6	32.5	CC(C)(O/N=C(\C(=O)N[C@@H]1C(=O)N2C(C(=O)[O-])=C(C[n+]3ccccc3)CS[C@H]12)c1csc(N)n1)C(=O)O [Ceftazidime]	does not interfere with the activity of HAase	Final concentration of HAase (units/ml) 150 [2, 21]: 145 units/ml; Final concentration of HAase (units/ml) 500 [2, 21]: 501 units/ml; Final concentration of HAase (units/ml) 2000 [2, 21]: 2026 units/ml; Final concentration of HAase (units/ml) 6000 [2, 21]: 6027 units/ml; Final concentration of HAase (units/ml) 150 [2, 22]: 148 units/ml; Final concentration of HAase (units/ml) 500 [2, 22]: 488 units/ml; Final concentration of HAase (units/ml) 2000 [2, 22]: 2001 units/ml; Final concentration of HAase (units/ml) 6000 [2, 22]: 5981 units/ml
31.5	28.8	28.9	33.2	29.1	33.2	37.9	39.3	47.1	16.8	14.7	10.4	14.1	15.5	18.3	15.8	23.0	25.7	CO/N=C(\C(=O)N[C@@H]1C(=O)N2C(C(=O)O)=C(CSc3nc(=O)c(=O)[nH]n3C)CS[C@H]12)c1csc(N)n1 [Ceftriaxone]	does not interfere with the activity of HAase	Final concentration of HAase (units/ml) 150 [2, 23]: 162 units/ml; Final concentration of HAase (units/ml) 500 [2, 23]: 510 units/ml; Final concentration of HAase (units/ml) 2000 [2, 23]: 1986 units/ml; Final concentration of HAase (units/ml) 6000 [2, 23]: 6067 units/ml; Final concentration of HAase (units/ml) 150 [2, 24]: 162 units/ml; Final concentration of HAase (units/ml) 500 [2, 24]: 507 units/ml; Final concentration of HAase (units/ml) 2000 [2, 24]: 1962 units/ml; Final concentration of HAase (units/ml) 6000 [2, 24]: 6232 units/ml
